According to patent US20090317741A1, “COMPOUND, ACID GENERATOR, RESIST COMPOSITION AND METHOD OF FORMING RESIST PATTERN” (Tokyo Ohka Kogyo Co., Ltd., priority 2006, published 2009):

Description: The solution of propylene glycol monomethyl ether acetate (PGMEA), propylene glycol monomethyl ether (PGME), or ethyl lactate (EL) with each compound described above was prepared, while changing the concentration. After the preparation, each solution was stirred, and then the concentration in which each acid generator was completely dissolved was measured.

Structure (SMILES)	Solubility in EL [% by weight]	Solubility in PGME [% by weight]	Solubility in PGMEA [% by weight]
CC(C)(C)c1ccc(-[s+]2c3ccccc3c3ccccc32)cc1 [Compound (b1-21)]	7	>20	5
CCC(C)(C)c1ccc(-[s+]2c3ccccc3c3ccccc32)cc1 [Compound (b1-24)]	>20	>20	15
